Experiment in all cases: Gαq-mediated intracellular calcium mobilization
Background: Calcium assays in cells follow changes in intracellular calcium, usually with a dye or a luminescent sensor.

One test has as its target human 5-HT2B receptor (Homo sapiens, UniProt P41595). The following applies: calcium flux, HEK-293.
The next test has as its target human 5-HT2A receptor (Homo sapiens, UniProt P28223). The following applies: calcium flux, HEK-293.
Test [1] has as its target T1, human 5-HT2C (INI) receptor (Homo sapiens, UniProt P28335).
T1 sequence (P28335 33-458): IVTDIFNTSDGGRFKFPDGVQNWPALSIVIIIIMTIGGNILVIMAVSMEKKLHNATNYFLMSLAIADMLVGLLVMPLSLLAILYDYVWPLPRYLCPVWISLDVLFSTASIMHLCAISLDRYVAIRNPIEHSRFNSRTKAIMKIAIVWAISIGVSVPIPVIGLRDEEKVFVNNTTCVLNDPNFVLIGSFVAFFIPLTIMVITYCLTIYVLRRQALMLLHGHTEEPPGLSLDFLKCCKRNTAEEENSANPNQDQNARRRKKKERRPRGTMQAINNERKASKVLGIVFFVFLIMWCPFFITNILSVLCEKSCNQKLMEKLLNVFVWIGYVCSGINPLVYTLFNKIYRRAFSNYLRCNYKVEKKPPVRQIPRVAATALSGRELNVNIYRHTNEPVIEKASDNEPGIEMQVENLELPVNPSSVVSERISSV
The following applies: for Emax: HEK293, read-out: 5-HT2C Emax, percentage of maximal activation by 5-HT, or activation at 10 μM for NA; for agonism at the 5-HT2C receptor (in words): calcium flux, HEK-293.

From publication PMC3390974 (ACS medicinal chemistry letters, 2011) come the findings set out here.

pEC50: −log10 of the molar value.

As a reminder, the pEC50 is the EC50 on a negative log10 scale, so that one unit is a factor of ten. As usually defined, the Emax is the size of the effect at its maximum, as opposed to the concentration needed.

Sequence of human 5-HT2B receptor (P41595 whole entry): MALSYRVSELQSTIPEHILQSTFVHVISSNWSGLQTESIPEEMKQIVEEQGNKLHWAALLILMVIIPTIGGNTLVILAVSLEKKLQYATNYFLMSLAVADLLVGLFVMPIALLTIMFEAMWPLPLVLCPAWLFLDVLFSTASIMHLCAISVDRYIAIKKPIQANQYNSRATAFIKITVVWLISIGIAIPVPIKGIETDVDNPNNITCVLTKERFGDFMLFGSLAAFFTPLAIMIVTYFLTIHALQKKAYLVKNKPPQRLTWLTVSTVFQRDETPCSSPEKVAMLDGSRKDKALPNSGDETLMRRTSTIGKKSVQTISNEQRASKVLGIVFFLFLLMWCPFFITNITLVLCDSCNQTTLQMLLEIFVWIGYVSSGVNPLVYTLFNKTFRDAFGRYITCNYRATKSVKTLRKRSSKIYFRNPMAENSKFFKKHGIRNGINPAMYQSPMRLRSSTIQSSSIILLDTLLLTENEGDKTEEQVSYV
Sequence of human 5-HT2A receptor (P28223 whole entry): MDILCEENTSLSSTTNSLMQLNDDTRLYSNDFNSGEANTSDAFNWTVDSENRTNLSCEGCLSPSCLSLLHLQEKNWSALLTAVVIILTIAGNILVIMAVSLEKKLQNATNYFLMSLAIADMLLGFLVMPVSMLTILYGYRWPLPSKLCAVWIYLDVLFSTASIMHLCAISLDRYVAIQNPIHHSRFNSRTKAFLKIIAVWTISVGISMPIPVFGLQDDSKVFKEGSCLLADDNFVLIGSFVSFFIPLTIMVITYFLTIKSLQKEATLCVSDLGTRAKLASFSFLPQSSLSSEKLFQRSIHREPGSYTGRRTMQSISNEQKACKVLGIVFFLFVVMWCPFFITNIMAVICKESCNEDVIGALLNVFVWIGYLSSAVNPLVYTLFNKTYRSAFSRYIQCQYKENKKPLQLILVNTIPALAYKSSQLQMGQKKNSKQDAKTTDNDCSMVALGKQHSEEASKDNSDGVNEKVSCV

In the case of `Cl.NC[C@H]1C[C@@H]1c1ccccc1OCC1CC1` (racemic) [Compound 11e, trans-[2-(2-cyclopropylmethoxyphenyl)cyclopropyl]methylamine hydrochloride], on human 5-HT2B receptor, the “agonism at the 5-HT2B receptor (in words)” value was “inactive”.

On to `Cl.NC[C@H]1C[C@@H]1c1ccccc1OCC1CC1` (single isomer, unassigned) [(+)-11e, (+)-trans-[2-(2-cyclopropylmethoxyphenyl)cyclopropyl]methylamine hydrochloride], for which the “agonism at the 5-HT2A receptor (in words)” value on human 5-HT2A receptor is listed as “activate neither”. Also, the figures for the “agonism at the 5-HT2B receptor (in words)” value on human 5-HT2B receptor and on human 5-HT2B receptor (listed as (+)-trans-[2-(2-cyclopropylmethoxyphenyl)cyclopropyl]methylamine hydrochloride) were “activate neither” and “no detectable agonism”, respectively.

In the case of `COc1ccc(-c2ccccc2)cc1[C@H]1C[C@@H]1CN` [Compound 9a], in test [1], the pEC50 was 5.46 and the maximal response (Emax) is 67%.

As for `COc1ccc(-c2ccccc2C)cc1[C@H]1C[C@@H]1CN` [Compound 9b], in test [1], the pEC50 is 5.42 and the Emax came to 64%.

Turning to `CCCCc1ccc(-c2ccc(OC)c([C@H]3C[C@@H]3CN)c2)cc1.Cl` [Compound 9h], the “agonism at the 5-HT2A receptor (in words)” value on human 5-HT2A receptor is “failure”. Moreover, at human 5-HT2B receptor, the “agonism at the 5-HT2B receptor (in words)” value is on record as “failure”. In addition, in test [1], the “agonism at the 5-HT2C receptor (in words)” value was “failure”.

Regarding `Cc1ccc(OCC(C)C)c([C@H]2C[C@@H]2CN)c1.Cl` [Compound 10a], in test [1], the “agonism at the 5-HT2C receptor (in words)” value was “much less potent”.

With `CCCCOc1ccc(C)cc1[C@H]1C[C@@H]1CN.Cl` [Compound 10b], the “agonism at the 5-HT2C receptor (in words)” value in test [1] is “much less potent”.

Take `CC(C)COc1ccccc1[C@H]1C[C@@H]1CN.Cl` [Compound 11c]: the “agonism at the 5-HT2B receptor (in words)” value at human 5-HT2B receptor is “inactive”.

`CCCCCOc1ccccc1[C@H]1C[C@@H]1CN.Cl` [Compound 11d]: the “agonism at the 5-HT2A receptor (in words)” value at human 5-HT2A receptor was “abolished agonist activity”. Besides, the “agonism at the 5-HT2B receptor (in words)” value on human 5-HT2B receptor was “abolished agonist activity”. For the same compound, the “agonism at the 5-HT2C receptor (in words)” value in test [1] is on record as “abolished agonist activity”.

Turning to `Cl.NC[C@H]1C[C@@H]1c1ccccc1OCC1CCCCC1` [Compound 11g], on human 5-HT2A receptor, the “agonism at the 5-HT2A receptor (in words)” value is given as “abolished agonist activity”. Further, the “agonism at the 5-HT2B receptor (in words)” value at human 5-HT2B receptor is on record as “abolished agonist activity”. Besides, the “agonism at the 5-HT2C receptor (in words)” value in test [1] is on record as “abolished agonist activity”.
